Experimental data published in US20190070174A1, “METHODS OF TREATING NEURODEGENERATIVE DISEASES” (priority 2016, published 2019).

Assays:
[1] = tested on: mouse Atxn3; experiment: Organotypic brain slice cultures from YACMJD84.2 (Q84) mice, immunoblotting; assay type: cell-based; conditions: sagittal brain slices treated for 48 hours, cerebellum and brainstem
Method: Nine slices per brain were used in each set of cultures. […] After 48 hours of incubation at 37° C./5% CO2, brain slices were assessed for ATXN3 levels by immunoblotting or immunofluorescence and for cell viability. For immunoblotting, each slice was macrodissected into separate cerebellum and brainstem that were immediately frozen at −80° C. in 80 μL and 150 μL of cold RIPA buffer containing protease inhibitors (Complete, Roche Diagnostics), respectively. Cell viability was assessed on treated slices by incubation in propidium iodide (PI) 1 μg/mL in culture medium for 1 hour. Slices were then mounted in PROLONG Gold Antifade Reagent (Invitrogen) and imaged using a FV500 Olympus confocal microscope.
Protein lysates from cell cultures, mouse brain slices or mouse brains were obtained by lysis in RIPA buffer containing protease inhibitors (Complete, Roche Diagnostics), followed by sonication and centrifugation. The supernatants (soluble protein fractions) were collected, total protein concentration was determined using the BCA method (Pierce) and then stored at −80° C. […] Insoluble proteins were then quantified, and 100 μg were loaded in a filter trap assay apparatus and transferred to a nitrocellulose membrane (0.45 μm pore) that was incubated overnight with rabbit anti-MJD antibody (1:5000) at 4° C. […] Band intensity was quantified by densitometry using ImageJ. […]

[2] = tested on: endogenous mouse Atxn3; experiment: Subchronic treatment of Q84 mice, immunoblot of soluble lysates; assay type: in vivo; conditions: 15 mg/kg IP daily for 10 days
Method: (§1) YACMJD84.2 transgenic mice were housed in cages with a maximum number of five animals and maintained in a standard 12-hour light/dark cycle with food and water ad libitum. Genotyping was performed using DNA isolated from tail biopsy at the time of weaning, and genotypes of all studied mice were confirmed using DNA extracted from tails collected post-mortem. […] Five hours after the final injection, mice were anesthetized with ketamine/xylazine and perfused transcardially with phosphate buffered saline (PBS) (for RNA and protein studies), and brains were immediately placed on dry ice and stored at −80° C.
(§2) Protein lysates from cell cultures, mouse brain slices or mouse brains were obtained by lysis in RIPA buffer containing protease inhibitors (Complete, Roche Diagnostics), followed by sonication and centrifugation. The supernatants (soluble protein fractions) were collected, total protein concentration was determined using the BCA method (Pierce) and then stored at −80° C. […] Pellets corresponding to insoluble protein fractions were resuspended in 100 μL of Laemmli buffer 2× and boiled for 10 min. Insoluble proteins were then quantified, and 100 μg were loaded in a filter trap assay apparatus and transferred to a nitrocellulose membrane (0.45 μm pore) that was incubated overnight with rabbit anti-MJD antibody (1:5000) at 4° C. Bound primary antibodies were visualized by incubation with a peroxidase-conjugated anti-mouse or anti-rabbit secondary antibody (1:10000; Jackson Immuno Research Laboratories) followed by treatment with the ECL-plus reagent (Western Lighting, PerkinElmer) and exposure to autoradiography films. Band intensity was quantified by densitometry using ImageJ.
(§3) Five hours after the final injection on day 10, mice were sacrificed and brains collected for total protein and RNA extraction from different regions: brainstem, cerebellum, cervical spinal cord, and forebrain.

[3] = tested on: human ATXN3; experiment: as above; assay type: in vivo; conditions: 15 mg/kg IP daily for 10 days
Method: as §1, §2, §3

[4] = tested on: human ATXN3 transcripts; experiment: Subchronic treatment of Q84 mice, quantitative RT-PCR; assay type: in vivo; conditions: brainstem, 15 mg/kg IP daily for 10 days
Method: as §1
(§4) Reverse transcription of 1.5 μg of total RNA per sample was performed using the iScript cDNA synthesis kit (Bio-RAD). Human ATXN3 and mouse Atxn3, Drd2, 5HT1A, 5HT2A and Gapdh (housekeeping) transcript levels were accessed by quantitative real-time PCR. Relative gene expression was determined using the ΔΔCT method, normalizing for Gapdh mRNA levels.

[5] = tested on: mouse Atxn3 transcripts; experiment: as above; assay type: in vivo; conditions: brainstem, 15 mg/kg IP daily for 10 days
Method: as §1, §4

[6] = tested on: insoluble ATXN3; experiment: Subchronic treatment of Q84 mice, filter trap analysis of insoluble fractions; assay type: in vivo, human; conditions: brainstem insoluble fractions
Method: as §1
Protein lysates from cell cultures, mouse brain slices or mouse brains were obtained by lysis in RIPA buffer containing protease inhibitors (Complete, Roche Diagnostics), followed by sonication and centrifugation. The supernatants (soluble protein fractions) were collected, total protein concentration was determined using the BCA method (Pierce) and then stored at −80° C. […] Pellets corresponding to insoluble protein fractions were resuspended in 100 μL of Laemmli buffer 2× and boiled for 10 min. Insoluble proteins were then quantified, and 100 μg were loaded in a filter trap assay apparatus and transferred to a nitrocellulose membrane (0.45 μm pore) that was incubated overnight with rabbit anti-MJD antibody (1:5000) at 4° C. […] Band intensity was quantified by densitometry using ImageJ.

[7] = tested on: Hsf1; experiment: Subchronic treatment of Q84 mice, Western blot of brainstem soluble fractions; assay type: in vivo, mouse
Method: as §1, §2

[8] = tested on: Hsp40; experiment: as above; assay type: in vivo, mouse
Method: as §1, §2

[9] = tested on: Hsp70; experiment: as above; assay type: in vivo, mouse
Method: as §1, §2

[10] = tested on: Hsp90a; experiment: as above; assay type: in vivo, mouse
Method: as §1, §2

[11] = tested on: Hsp90β; experiment: as above; assay type: in vivo, mouse
Method: as §1, §2

[12] = tested on: Rad23a; experiment: as above; assay type: in vivo, mouse; conditions: Q84 mice vs vehicle
Method: as §1, §2

[13] = tested on: Rad23b; experiment: as above; assay type: in vivo, mouse; conditions: Q84 mice vs vehicle
Method: as §1, §2

O=C1CCc2ccc(OCCCCN3CCN(c4cccc(Cl)c4Cl)CC3)cc2N1 [aripiprazole]
levels of mouse Atxn3 [1]: reduced levels
levels of endogenous mouse Atxn3 [2]: trend toward decreased levels
HMW ATXN3 species, of levels in vehicle-treated mice ([3]; brainstem, Q84 mice): 44%
levels of monomeric human ATXN3 ([3]; soluble lysates): trend toward decreased levels
human ATXN3 transcript levels vs vehicle-treated mice [4]: similar
mouse Atxn3 transcript levels vs vehicle-treated mice [5]: similar
insoluble ATXN3 vs vehicle [6]: no differences
Heat shock transcription factor (Hsf1) level [7]: increased
levels of Hsp40 [8]: No differences
levels of Hsp70 compared with vehicle-treated mice [9]: 62%
levels of Hsp90a compared with vehicle-treated mice [10]: 79%
levels of Hsp90β compared with vehicle-treated mice [11]: 22%
levels of Rad23a [12]: trend toward decreased levels
levels of Rad23b [13]: trend toward decreased levels
